Results on two compounds are retold here after paper PMC9032233, “2-{5-[(Z,2Z)-2-Chloro-3-(4-nitrophenyl)-2-propenylidene]-4-oxo-2-thioxothiazolidin-3-yl}-3-methylbutanoic Acid as a Potential Anti-Breast Cancer Molecule” (International Journal of Molecular Sciences, 2022).

In series [1] the test system is LC3A. In words: LC3A concentration in MDA-MB-231 cell lysates (ELISA). It counts as cell-based, human. The conditions noted are these: 24 h, control 2.965 ng/mL. As for the experimental part:
(§1) High sensitivity assay kits (EIAab Science Co., Ltd., Wuhan, China; Abcam plc., Cambridge, United Kingdom; Cloud-Clone Corp., Katy, TX, USA) were used to determine the concentrations of selected proteins in cell lysates […] In brief, after trypsinization, cells were washed thrice with cold PBS and centrifuged at 1000× g for 5 min at 4 °C. Then, cells (1.5 × 10^6) were suspended in lysis buffer for whole-cell lysates. After the second centrifugation, cellular supernatants were frozen immediately at −70 °C. Untreated cancer cells were taken as a control.
(§2) The microtiter plates provided in the kits were pre-coated with an antibody specific to the analyzed antigen. The tests were carried out according to the manufacturer’s protocols.
Background: An ELISA detects its analyte on a solid surface through an enzyme-linked reagent.

For series [2], the system named is human skin fibroblasts. Nature of the series: MTT cell viability assay, skin fibroblasts. The format is cell-based. The conditions noted are these: Skin fibroblast, 24 h incubation. The procedure:
(§3) Cell culture MCF-7, MDA-MB-231 human breast cancer cells, and fibroblasts skin cells were purchased from the ATCC—American Type Culture Collection. All cell lines were maintained in DMEM (Corning, Kennebunk, ME, USA). The medium was supplemented with 10% fetal bovine serum—FBS (Eurx, Gdansk, Poland) and 1% antimicrobial substances: penicillin–streptomycin (Corning, Kennebunk, ME, USA). The incubator asserted appropriate growth conditions required for these cell lines: 5% of CO2, at 37 °C, with the humidity between 90–95%. Cells were seeded in 100 mm round dishes. An amount of 0.05% trypsin containing 0.02% EDTA (Corning, Kennebunk, ME, USA) and phosphate-buffered saline (PBS) without calcium and magnesium (Corning, Kennebunk, ME, USA) was used to detach cells from a plate once 80–90% cell confluence was achieved. In the next step, cells were reseeded in six-well plates (density—5 × 10^5 of cells per well) in 1 mL of DMEM after a 24 h incubation used in the presented tests.
(§4) To examine the effect of Les-3331 on cell viability, the MTT assay was performed. […] The absorbance was measured using Spectrophotometer UV-VIS Helios Gamma (Unicam/ThermoFisher Scientific Inc., Waltham, MA, USA) at a wavelength of 570 nm. The obtained absorbance in untreated control cells was taken as 100%, while the survival of the cells incubated with tested compounds presented as a percentage of the control value.
In general terms: Tetrazolium assays rely on reduction of a dye to a coloured formazan, in cell work by metabolically active cells.

Series [3] deals with caspase-9. In words: Caspase-9 concentration in MCF-7 cell lysates (ELISA). The format is cell-based, human. As to conditions: 24 h, control 120.913 ng/mL. As for the experimental part: (§5) High sensitivity assay kits (EIAab Science Co., Ltd., Wuhan, China; Abcam plc., Cambridge, United Kingdom; Cloud-Clone Corp., Katy, TX, USA) were used to determine the concentrations of selected proteins in cell lysates after 24 h incubation with novel compound and reference drug in 1 µM and 5 µM concentrations. In brief, after trypsinization, cells were washed thrice with cold PBS and centrifuged at 1000× g for 5 min at 4 °C. Then, cells (1.5 × 10^6) were suspended in lysis buffer for whole-cell lysates. After the second centrifugation, cellular supernatants were frozen immediately at −70 °C. Untreated cancer cells were taken as a control.
as §2

Series [4] deals with Beclin-1. Nature of the series: Beclin-1 concentration in MDA-MB-231 cell lysates (ELISA). It counts as cell-based, human. The conditions noted are these: 24 h, control 3.605 ng/mL. The procedure:
as §1, §2

For series [5], the system named is topoisomerase II. Nature of the series: Topoisomerase II concentration in MCF-7 cell lysates (ELISA). The format is cell-based, human. As to conditions: 24 h, control 2.260 ng/mL. The procedure:
as §5, §2

Series [6] has as its system MDA-MB-231 cells. Nature of the series: Mitochondrial membrane potential analysis (JC-1), MDA-MB-231. It counts as cell-based, human. The conditions noted are these: 24 h. As for the experimental part: The JC-1 MitoScreen kit (BD Biosciences, San Diego, CA, USA) was used for the mitochondrial membrane potential (ΔΨm) analysis. The assay was performed using a flow cytometer (BD FACSCanto II, Becton Dickinson Biosciences Systems, San Jose, CA, USA). The Les-3331 and reference drug were used in 1 µM and 5 µM concentrations. After 24 h incubation with tested compounds, the assay was performed as described in the literature. Analysis of the obtained results was performed using FACSDiva software (version 6.1.3, BD Biosciences Systems, San Jose, CA, USA). The equipment was calibrated with BD Cytometer Setup and Tracking Beads (BD Biosciences, San Diego, CA, USA).

The nature of series [7]: Parallel artificial membrane permeability assay (PAMPA). As to conditions: 200 µM in PBS pH 7.4, 5 h at RT, read-out: permeability coefficient Pe. The format is in vitro ADME. The procedure: All in vitro assays used for the evaluation of Les-3331 ADME-Tox parameters were described previously. In brief, for the determination of permeability, Pre-coated PAMPA Plate System Gentest^TM was purchased from Corning (Tewksbury, MA, USA). […] PAMPA plates with compounds added to the donor wells were incubated for 5 h at RT. UPLC-MS Waters ACQUITY—TQD system with the TQ Detector (Waters, Milford, MI, USA) was used next for determination of compounds concentrations in donor and acceptor wells, which were required for calculation of permeability coefficient Pe according to formulas provided by the manufacturer.

Series [8] concerns LC3B. Nature of the series: LC3B concentration in MCF-7 cell lysates (ELISA). As to conditions: 24 h, control 1.194 ng/mL. It counts as cell-based, human. The procedure:
as §1, §2

Series [9] relates to MDA-MB-231 human breast cancer cells. In words: MTT cell viability assay, MDA-MB-231. As to conditions: MDA-MB-231, MTT, 24 h incubation. It counts as cell-based. The procedure:
as §3, §4

Broadly, the IC50 is the concentration that gives 50% inhibition. Low values mean inhibition by little substance, high ones a need for much substance. Compound `CC(C)C(C(=O)O)N1C(=O)/C(=C/C(Cl)=C/c2ccc([N+](=O)[O-])cc2)SC1=S` (stereo not shown) [Les-3331, 2-{5-[(Z,2Z)-2-chloro-3-(4-nitrophenyl)-2-propenylidene]-4-oxo-2-thioxothiazolidin-3-yl}-3-methylbutanoic acid] showed an LC3A concentration in series [1] (MDA-MB-231, 5 µM) of 1.258 ng/mL. The IC50 turned out to be 28.5 µM in [2] and 15.2 µM in [9]. Moreover, the values for the Casp-9 concentration in [3] (1 µM) and in [3] (5 µM) were 150.187 ng/mL and 168.243 ng/mL, respectively. In addition, the Beclin-1 concentration in series [4] (MDA-MB-231, 1 µM) is reported as 3.007 ng/mL. Further, the “Top II concentration” value was 0.900 ng/mL in [5] (MCF-7, 1 µM) and 0.625 ng/mL in series [5] (MCF-7, 5 µM). Besides, the “% of cells with decreased ΔΨm” value in series [6] (MDA-MB-231, 1 µM) came out at 21.8%; in series [6] (MDA-MB-231, 5 µM), 36.3%. The Papp at 5 h, 200 µM in [7] is 0.96 ×10⁻⁶ cm/s. The compound also gave an LC3B concentration in [8] (MCF-7, 5 µM) of 1.002 ng/mL.
As for `COc1cc([C@@H]2c3cc4c(cc3[C@@H](O[C@@H]3O[C@@H]5CO[C@@H](C)O[C@H]5[C@H](O)[C@H]3O)[C@H]3COC(=O)[C@H]23)OCO4)cc(OC)c1O` [Etoposide, reference compound], the LC3A concentration was found to be 2.800 ng/mL in [1] (MDA-MB-231, 1 µM) and 1.313 ng/mL in [1] (MDA-MB-231, 5 µM). For the same compound, the Casp-9 concentration in series [3] (1 µM) turned out to be 154.960 ng/mL; in series [3] (5 µM), 158.900 ng/mL. In addition, the Beclin-1 concentration is 3.442 ng/mL in series [4] (MDA-MB-231, 1 µM) and 3.004 ng/mL in [4] (MDA-MB-231, 5 µM). The “Top II concentration” value in [5] (MCF-7, 1 µM) turned out to be 1.587 ng/mL; in [5] (MCF-7, 5 µM) it was 1.443 ng/mL. The “% of cells with decreased ΔΨm” value was found to be 11.4% in series [6] (MDA-MB-231, 1 µM) and 15.6% in [6] (MDA-MB-231, 5 µM). Besides, the LC3B concentration in [8] (MCF-7, 1 µM) amounted to 1.157 ng/mL; in [8] (MCF-7, 5 µM) it was 0.779 ng/mL. Besides, the IC50 in series [9] is above 50 µM.
